Laboratory results published in patent publication US20240327372A1, “PREPARATION OF PHENE[…] […] STEREOISOMERS THEREOF AND PRECURSORS THEREOF” (priority 2022, published 2024).
Where two headings read alike, the source gives them in different places.

Columns and labels:
open field test = settings: 5, 10, 20 mg/kg, SC; Štefková et al. 2017; cited from earlier work
PTSD = settings: clinical case series of 21 individuals; cited from earlier work
mouse model of PTSD = experiment: Fear extinction in a mouse model of PTSD; type: in vivo; settings: 30 mg/kg IP
Description: FIGS. 1A-1D: Methylone improves fear extinction recall in a mouse model of PTSD. (FIG. 1A) Schematic of experimental design. A single CS-US (tone-shock) pairing on day 1 was followed by 6 CS presentations in a novel context (context B). Methylone or saline vehicle was injected 30 min prior to extinction training on day 2. On day 3, the time spent freezing to the CS was quantified. […] (FIG. 1C) The time freezing before vs. during each of 6 cues on day 3 (to control for locomotor effects) are shown. There was a significant cue x drug interaction (F(5, 130)=2.409, p<0.05). […] N=12 for methylone group (30 mg/kg, IP, orange diamonds) and N=16 for saline control group (black squares). *p<0.05
Effective PTSD treatments facilitate the disassociation between a traumatic memory and the patient's fear response, making cues for the traumatic memory evoke less of a fear response. This is modeled in the mouse fear extinction paradigm which takes place over 3 days. On day 1 (fear conditioning), mice are trained to acquire a “traumatic memory,” namely associating the conditioned stimulus (CS, tone) to the unconditioned stimulus (US, foot shock). […] On day 3 (extinction recall), the mice are “asked” if that tone (CS) still elicits a fearful response, as measured by the time spent freezing when the tone is presented. […]

[1] = Pharmacokinetics of methylone after single IV, PO or IP administration, plasma LC-MS/MS; type: in vivo, male Sprague Dawley rats; settings: for MRT last: read-out: MRT0-last; for Cmax: rat plasma
Description: The pharmacokinetic properties of methylone after a single administration intravenously (IV), intraperitoneally (IP), or by oral gavage (PO) in male Sprague Dawley rats has been determined using a liquid chromatography tandem mass spectrometry (LC-MS/MS) method that has been established and validated for methylone in the rat. Rats (n=3 per group) received a single dose of methylone: 5 mg/kg IV, 15 mg/kg IP, or 15 mg/kg PO.
To investigate whether the prodrug extends the half-life or alters other basic pharmacokinetic properties of methylone (e.g., Cmax or Tmax), rats are treated with each prodrug IV, IP, or PO. For each compound, three groups of rats are treated as follows: For group 1, a single dose of methylone is administered to 3 male Sprague-Dawley rats by IV bolus at 5 mg/kg. For group 2, a single dose of methylone is administered to 3 male Sprague-Dawley rats by oral gavage (PO) at 15 mg/kg. For group 3, a single dose of methylone is administered to 3 male Sprague-Dawley rats by IP at 15 mg/kg. For all groups, blood samples are collected from each animal at 0.083, 0.25, 0.5, 1, 2, 4, 8, 12, and 24 hours post-dose for the determination of plasma concentrations. The plasma concentrations are quantified by liquid chromatography tandem mass spectrometry (LC-MS/MS). The bioanalytical assay has been established and validated, providing a lower limit of quantification (LLOQ) of 1 ng/mL and an upper limit of quantification (ULOQ) of 3000 ng/mL for methylone. The plasma concentration-time data are analyzed using Phoenix WinNonlin (version 8.3) to characterize the PK properties of the analyte. The non-compartmental analysis model and the linear/log trapezoidal method are applied to calculating the PK parameters.

[2] = rat; Elmore et al. 2017; cited from earlier work
[3] = test system: rat forced swim test (FST); experiment: Rat forced swim test (FST); type: in vivo
Description: All FST studies are performed and scored by an experimenter blind to treatment group and according to standard protocols. Briefly, rats are placed in a circular plexiglass container filled with water. Water temperature is maintained at 22-25° C. and changed for every animal. Day 1 (Training) consists of a 15 min acclimation trial, and Day 2 (Testing, 24 h later) consists of the 5 min test. A time sampling procedure is employed where animals are observed every 5 seconds for the duration of the test session (60 counts or 5 minutes) and scored for immobility (defined as the failure to struggle), swimming (defined as a circular movement around the tank), or climbing (defined as an upwards escape behavior). Data are expressed as the percent of the testing session (e.g., the number of immobility counts divided by 60). A p-value less than 0.05 indicates statistical significance after typical statistical analyses (e.g., unpaired t-test or ANOVA).
To determine that the prodrug and/or enantiomer has an antidepressant-like effect and to compare it to methylone, rats are treated with each compound 30 min prior to testing. Additional tests are run 24, 72, 168 hours post-dose or longer.
Racemic methylone (10 mg/kg, IP) has a maximal antidepressant-like effect in the rat forced swim test (FST), reducing immobility by nearly 100% compared to vehicle treated controls. To determine whether one enantiomer of methylone could mimic the robust antidepressant-like effect of racemic methylone, rats were treated with a single dose of racemic methylone, (R)-methylone, (S)-methylone (all 10 mg/kg, IP) or vehicle 30 min before testing in the FST. […] Therefore, all of the activity of methylone appears to be driven by the activity of one enantiomer ((S)-methylone).

[4] = self-administration, healthy volunteers; cited from earlier work
[5] = male, Sprague Dawley, rat, plasma, IP 15 mg/kg
[6] = male, Sprague Dawley, rat, plasma, IV 5 mg/kg
[7] = male, Sprague Dawley, rat, plasma, PO 15 mg/kg

SMILES: CNC(C)C(=O)c1ccc2c(c1)OCO2 (stereo not shown) [Methylone, 3,4-methylenedioxy-N-methylacthinone]
- Thigmotaxis (time spent hugging the perimeter of the open field) (open field test): reduce thigmotaxis
- Patients with improved PTSD symptoms (PTSD): 81%
- Enhancement of fear extinction recall compared to saline controls (mouse model of PTSD; 30 min prior to extinction training): ~60%
- Freezing time during the first cue on day 3 (extinction recall) compared to saline (mouse model of PTSD; p<0.05): significantly reduced
- Tmax ([1]; IP 15 mg/kg): 0.250 ± 0.000 h
- AUC(0-t) [1, 5]: 4.3 ± 1.18 µg·h/mL
- half-life [1, 5]: 0.8 ± 0.169 h
- MRT last [1, 5]: 1.07 ± 0.211 h
- AUC(0-t) [1, 6]: 1.2 ± 0.0882 µg·h/mL
- C0 [1, 6]: 3.02 ± 0.666 µg/mL
- clearance [1, 6]: 4.1 ± 0.324 L/h/kg
- half-life [1, 6]: 0.362 ± 0.024 h
- MRT last [1, 6]: 0.439 ± 0.026 h
- Vd ([1]; male, Sprague Dawley, rat, plasma, IV 5 mg/kg, read-out: Vdss): 1.98 ± 0.23 L/kg
- AUC(0-t) [1, 7]: 2.77 ± 0.657 µg·h/mL
- half-life [1, 7]: 3.23 ± 1.99 h
- MRT last [1, 7]: 2.99 ± 0.467 h
- Tmax ([1]; male, Sprague Dawley, rat, plasma, PO 15 mg/kg, read-out: Tmax): 1.33 ± 0.577 h
- Cmax ([1]; male, Sprague Dawley, IP 15 mg/kg): 4.23 ± 0.514 µg/mL
- Cmax ([1]; male, Sprague Dawley, PO 15 mg/kg): 0.678 ± 0.243 µg/mL
- t1/2 [2]: 1 h
- Reduction of immobility compared to vehicle-treated controls ([3]; single dose 5 mg/kg): approximately 50%
- Reduction of immobility compared to vehicle-treated controls ([3]; single dose 15 mg/kg): ~100%
- Heart rate [4]: increase in heart rate
- Systolic and diastolic blood pressure [4]: significant increase
